# In BindingDB's records for doi:10.1016/0960-894X(95)00399-E (1995):
# How the values were obtained:
# [1] = molecular target: Gastrin/cholecystokinin type B receptor (Cavia porcellus); test: Binding affinity towards Cholecystokinin type B receptor was measured by displacement of [125I]CCK from guinea pig cortical membranes
# [2] = molecular target: Gastrin/cholecystokinin type B receptor (Cavia porcellus); test: as above; remark: listed apart in the source
IC50 [1] [nM],IC50 [2] [nM],SMILES
1.4,–,"CN1C(=O)C(NC(=O)Nc2cccc(C(=O)O)c2)N=C(C2CCCCC2)c2ccccc21 (stereo not drawn) [3-[3-(5-Cyclohexyl-1-methyl-2-oxo-2,3-dihydro-1H-benzo[e][1,4]diazepin-3-yl)-ureido]-benzoic acid]"
0.36,–,"CC(=O)NS(=O)(=O)c1cccc(NC(=O)NC2N=C(C3CCCCC3)c3ccccc3N(C)C2=O)c1 (stereo not drawn) [N-Acetyl-3-[3-(5-cyclohexyl-1-methyl-2-oxo-2,3-dihydro-1H-benzo[e][1,4]diazepin-3-yl)-ureido]-benzenesulfonamide]"
–,0.73,"CN1C(=O)[C@H](NC(=O)Nc2cccc(C(=O)NS(=O)(=O)c3ccccc3)c2)N=C(C2CCCCC2)c2ccccc21 [N-{3-[3-((R)-5-Cyclohexyl-1-methyl-2-oxo-2,3-dihydro-1H-benzo[e][1,4]diazepin-3-yl)-ureido]-benzoyl}-benzenesulfonamide]"
